Experimental findings from patent US20110178104A1, “Anti-Heparin Compounds” (POLYMEDIX INC., priority 2010, published 2011) are described below.

The subject of one data set is tinzaparin. Briefly: FXa amidolytic assay (Example 10), tinzaparin. The following applies: read-out: Tinzap FXa EC50; tinzaparin 0.1 ug/ml; human antithrombin, bovine Factor Xa.
A short description of data set [1]: Cytotoxicity colorimetric assay, HepG2. Format: cell-based, human. The following applies: human, HepG2 cells, one hour in serum-free media. As to the method: (§1) This assay measures the bioreduction of a novel tetrazolium compound to a soluble formazan product by viable cells. HepG2 cells were seeded in 96 well plates at 3×10^4 cells/well in MEM medium with 10% fetal bovine serum (FBS) 24 hours prior to use. NIH/3T3 cells were seeded in 96 well plates at 2×10^4 cells/well in DMEM medium with 10% bovine calf serum (BCS) 24 hours prior to use. Cell monolayers were rinsed in serum-free media and incubated for one hour with test agent in serum-free media. After incubation, the media was replaced with serum supplemented media and live cells were measured using the Cell Titer 96 Aqueous […] Assay kit (Promega, Madison, Wis.). EC50 values were determined using a four parameter logistic equation: Y=Bottom+(Top-Bottom)/(1+10̂((LogEC50-X)*HillSlope)).

Another data set has as its system Unfractionated heparin. The data set can be described thus: aPTT clotting assay, UFH 0.4 U/mL in plasma (Example 10). Format: biochemical. As to conditions: unfractionated heparin 0.4 U/mL in plasma; aPTT clotting. As to the method: aPTT clotting Assay: Unfractionated heparin was mixed with plasma at a final concentration of 0.4 U/mL (or concentration which increases aPTT time to between 120 and 300 seconds). […] The ACL Elite Hemostasis analyzer (Beckman Coulter™) was used to add aPTT reagent (HemosIL SynthASil) to supplemented plasma. Clotting was initiated by addition of CaCl2 and time to clot was recorded.

In data set [2] the test system is isolated human erythrocytes. The data set can be described thus: cells. As to conditions: Homo sapiens, Erythrocyte, 1 h, human RBC, 1 hour at 37° C.; read-out: Hemolysis EC50. It is filed as cell-based. Put shortly:
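Test agent was serially diluted two-fold over 0.48–1000 µg/ml and incubated for 1 h at 37 °C with shaking, using erythrocytes from pooled human blood diluted in Tris-buffered saline pH 7.4 (0.22% stock). Hemolysis was measured as supernatant absorbance at 405 nm. A four-parameter logistic equation gave EC50, and melittin served as the positive control.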

The subject of a further data set is enoxaparin. Briefly: FXa amidolytic assay (Example 10), enoxaparin. As to conditions: read-out: Enox FXa EC50; enoxaparin 0.1 ug/ml; human antithrombin, bovine Factor Xa.
Another data set relates to UFH. The data set can be described thus: FXa amidolytic assay (Example 10), UFH. As to conditions: read-out: Heparin FXa uM EC50; UFH 0.03 units/mL; human antithrombin, bovine Factor Xa.
Data set [3] can be described thus: Cytotoxicity colorimetric assay, NIH/3T3. It is filed as cell-based, mouse. The following applies: mouse, NIH/3T3 cells, one hour in serum-free media. The procedure:
as §1

A further data set relates to fondaparinux. The data set can be described thus: FXa amidolytic assay (Example 10), fondaparinux. The following applies: for EC50: read-out: Fondap FXa EC50, fondaparinux 0.02 μg/mL, human antithrombin, bovine Factor Xa.

≈ marks a conversion by molar mass, not a printed value. Where “and” joins values, the source holds several entries; their conditions need not be identical. Equal values may be shown once.

Procedure for enoxaparin: (§2) Two μl of test agent are added (range between 0.01 and 23 ug/ml) and incubated for 5 minutes at 23° C. Bovine Factor Xa was added to a final concentration of 0.636 nkat/mL and incubated for a further 10 minutes at 23° C.
Procedure for fondaparinux: as §2
Procedure for tinzaparin: as §2

As for `COc1ccc(NC(=O)[C@@H](CCCNC(=N)N)NC(=O)c2cc(NC(=O)[C@@H](CCCNC(=N)N)NC(=O)c3cc(NC(=O)[C@@H](CCCNC(=N)N)NC(=O)c4cc(NC(C)=O)ccc4OC)ccc3OC)ccc2OCC(=O)O)cc1C(=O)N[C@H](Cc1c[nH]c2ccccc12)C(=O)O` [Compound 306], the EC50 is 199 nM and 367 nM in the data set on tinzaparin; > 10000 nM in the data set with Unfractionated heparin; ~1000 µg/mL (≈ 738 µM) in data set [2]; 198 nM and 338 nM with enoxaparin; 0.236 µM in the data set on UFH. Besides, in data set [1], the half-maximal effective concentration (EC50) at 1 h is ~1000 µg/mL (≈ 738 µM).

For the molecule `COc1ccc(NC(=O)[C@H](CCCCN)NC(=O)c2cc(NC(=O)[C@H](CCCCN)NC(=O)c3cc(NC(=O)[C@H](CCCCN)NC(=O)c4cc(NC(=O)[C@@H](N)CCCCN)ccc4OC)ccc3OC)ccc2OC)cc1C(=O)O` [Compound 250], the EC50 in the data set with tinzaparin was 1290 nM; with Unfractionated heparin it was 2730 nM; in the data set on enoxaparin, 3280 nM; with fondaparinux it was > 10000 nM. Further, the EC50 at 1 h in data set [1] and in data set [3] was > 1000 µg/mL in each case.

Turning to `COc1cc(OC)c(C(=O)N[C@H]2CC[C@H](NC(=O)c3cccc(C(=O)N[C@H]4CC[C@H](NC(=O)c5cc(C(=O)NCCN)c(OC)cc5OC)CC4)n3)CC2)cc1C(=O)NCCN` [Compound 397], the EC50 with tinzaparin is 955 nM; with Unfractionated heparin, 1150 nM; in data set [2], > 1000 µg/mL; in the data set with enoxaparin, 985 nM; with fondaparinux it was 2630 nM. For the same molecule, the EC50 at 1 h turned out to be 616 µg/mL (≈ 717 µM) in data set [1] and 408 µg/mL (≈ 475 µM) in data set [3].

For the molecule `COc1cc(OC)c(C(=O)Nc2ccc(NC(=O)c3ccc(OCCCCCN)cc3OCCCCCN)cc2)cc1C(=O)Nc1ccc(NC(=O)c2ccc(OCCCCCN)cc2OCCCCCN)cc1` [Compound 411], the EC50 with tinzaparin was 123 nM; with Unfractionated heparin, 1150 nM; in data set [2], > 1000 µg/mL; in the data set with enoxaparin it was 96 nM; in the data set with fondaparinux, 61 nM. Moreover, the EC50 at 1 h worked out at 590 µg/mL (≈ 579 µM) in data set [1] and 86 µg/mL (≈ 84.4 µM) in data set [3]. For the same molecule, the “Potent LMWH-antagonists with superior anti-fondaparinux activity (summary)” value with fondaparinux was “superior anti-fondaparinux activity”.

As to `COc1cc(OC)c(C(=O)N[C@H]2CC[C@H](NC(=O)c3cncc(C(=O)N[C@H]4CC[C@H](NC(=O)c5cc(C(=O)NCCN)c(OC)cc5OC)CC4)c3)CC2)cc1C(=O)NCCN` [Compound 400], the concentration for a half-maximal effect (EC50) in the data set with tinzaparin was 1180 nM; in the data set with Unfractionated heparin, 5090 nM; in data set [2], > 1000 µg/mL; in the data set with enoxaparin, 1220 nM; in the data set with fondaparinux it was 5510 nM. Besides, the EC50 at 1 h in data set [1] was 1300 µg/mL (≈ 1520 µM); in data set [3], > 1000 µg/mL.

Take `COc1cc(OC)c(C(=O)N[C@H]2CC[C@H](NC(=O)c3cc(C(=O)N[C@H]4CC[C@H](NC(=O)c5cc(C(=O)NCCN)c(OC)cc5OC)CC4)ncn3)CC2)cc1C(=O)NCCN` [Compound 402]: the EC50 was 3180 nM with tinzaparin; 5520 nM in the data set on Unfractionated heparin; > 1000 µg/mL in data set [2]; 5810 nM in the data set on enoxaparin; 5860 nM in the data set on fondaparinux. Besides, the half-maximal effective concentration (EC50) at 1 h in data set [1] was 864 µg/mL (≈ 1000 µM); in data set [3], 753 µg/mL (≈ 875 µM).

Take `COc1cc(OC)c(C(=O)N[C@H]2CC[C@@H](NC(=O)c3cc(C(=O)N[C@H]4CC[C@@H](NC(=O)c5cc(C(=O)NCCCN)c(OC)cc5OC)CC4)c(OC)cc3OC)CC2)cc1C(=O)NCCCN` [Compound 404]: the EC50 with tinzaparin amounted to 445 nM; with Unfractionated heparin it was 2570 nM; in the data set on enoxaparin, 350 nM; in the data set with fondaparinux it was 325 nM. Also, the EC50 at 1 h in data set [1] is > 1000 µg/mL; in data set [3], 1100 µg/mL (≈ 1160 µM).

Turning to `COc1ccc(NC(=O)[C@@H](CCCNC(=N)N)NC(=O)c2cc(NC(=O)[C@@H](CCCNC(=N)N)NC(=O)c3cc(NC(=O)[C@@H](CCCNC(=N)N)NC(=O)c4cc(NC(C)=O)ccc4OC)ccc3OC)ccc2OC)cc1C(N)=O` [Compound 229], the EC50 with tinzaparin was 167 nM and 164 nM; in the data set with Unfractionated heparin it was 1850 nM and 2270 nM; in data set [2], ~500 µg/mL (≈ 445 µM); with enoxaparin, 215 nM and 207 nM; in the data set on fondaparinux, 587 nM and 322 nM. The concentration for a half-maximal effect (EC50) at 1 h in data set [1] was > 1000 µg/mL.
